What all share (experiment): growth of human tumour cells (NCI), 48 h
Assay [1] concerns OVCAR-5.
In assay [2] the test system is A498.
In assay [3] the test system is NCI-H23.
The test system of assay [4] is SW-620.
Assay [5] has as its system CAKI-1.
Assay [6] has as its system MOLT-4.
For assay [7], the system named is SNB-19.
Assay [8] relates to Malme-3M.
For assay [9], the system named is HCT-15.
Assay [10] has as its system ACHN.
Assay [11] concerns M14.
Assay [12] deals with SK-MEL-2.
The test system of assay [13] is SN12C.
The subject of assay [14] is UACC-62.
Assay [15] deals with HOP-92.
The subject of assay [16] is OVCAR-3.
Assay [17] concerns K562.
The subject of assay [18] is KM12.
Assay [19] has as its system HCC 2998.

Structures are written as SMILES.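 In this assay, cells in 96-well plates receive the compound at five concentrations for 48 hours. Endpoints are linearly interpolated between the surrounding concentrations. GI50 is the concentration that inhibits growth by half.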 Active and inactive are the calls of the source. Rule as the data show it: active = GI50 up to about 1.1 µM and inactive = higher.

Consider `O=C(N/N=C1/C(=O)N(c2ccc(Cl)cc2Cl)C(=O)C(=O)C1c1nc2ccccc2o1)c1ccccc1O` (stereo not drawn), for which the GI50 in [1] was > 100 µM (inactive); in [2] it was 31.3 µM (inactive); in assay [3] it was 25.7 µM (inactive); in [4], 47.9 µM (inactive); in assay [5], 34.8 µM (inactive); in [6] it was 34.7 µM (inactive). Moreover, the GI50 in assay [7] was 49.7 µM (inactive); in assay [8], 27.3 µM (inactive); in assay [9], 37.8 µM; in [10] it was 37.5 µM (inactive); in [11], 28.3 µM (inactive); in assay [12] it was 41.3 µM (inactive). Moreover, the GI50 is 33.8 µM (inactive) in assay [13]; 20.4 µM (inactive) in assay [14]; 30.5 µM (inactive) in [15]; 21.8 µM (inactive) in assay [16]; 47 µM (inactive) in [17]; 42.4 µM (inactive) in assay [18].

Take `CCOc1ccc(NC(=O)CC2SC(Nc3ccc(Cl)cc3)=NC2=O)cc1` (stereo not drawn): the GI50 in assay [1] was > 100 µM (inactive); in assay [2] it was 44.8 µM (inactive); in [3] it was > 100 µM (inactive); in [4] it was 98.9 µM (inactive); in [5], 21.5 µM (inactive); in [6], 29.4 µM (inactive). For the same molecule, the GI50 in assay [7] is > 100 µM (inactive); in assay [8], > 100 µM (inactive); in assay [9], 95.3 µM; in assay [10], > 100 µM (inactive); in assay [11], > 100 µM (inactive); in assay [19], > 100 µM (inactive). Also, the GI50 in [12] is > 100 µM (inactive); in assay [13], > 100 µM (inactive); in assay [14] it was > 100 µM (inactive); in [16] it was > 100 µM (inactive); in assay [17], 23.9 µM (inactive); in [18] it was > 100 µM (inactive).

With `COC(=O)[C@H]1CC(=O)C=C2CCCC21` (stereo partly drawn), the GI50 in [2], in assay [3], in assay [4], in assay [5], in [6] and in assay [7] was > 100 µM (inactive) each time. The GI50 in [8] was > 100 µM (inactive); in [9], more than 100 µM; in [11], > 100 µM (inactive); in assay [19], > 100 µM (inactive); in [12] it was > 100 µM (inactive); in assay [13], > 100 µM (inactive). Further, the GI50 in [14], in [15], in assay [16], in [17] and in [18] was > 100 µM (inactive) throughout.

Consider `C=C1C(=O)OC2(C)C3CCC(C3)C12` (stereo not drawn), for which the GI50 is > 100 µM (inactive) in assay [1]; 30.8 µM (inactive) in assay [3]; 47.2 µM (inactive) in [4]; 30.1 µM (inactive) in assay [5]; 34 µM (inactive) in assay [6]; > 100 µM (inactive) in [7]. The GI50 in assay [8] was 44.1 µM (inactive); in assay [9] it was 60.7 µM; in assay [10] it was > 100 µM (inactive); in assay [11], 27.7 µM (inactive); in [19], 66.1 µM (inactive); in assay [12], 39.4 µM (inactive). For the same molecule, the GI50 is 57.8 µM (inactive) in [13]; 63.8 µM (inactive) in [14]; 29 µM (inactive) in assay [15]; 53.5 µM (inactive) in assay [16]; 33.3 µM (inactive) in [17]; 43.4 µM (inactive) in assay [18].

Regarding `[C-]#[N+]C1(C(=O)OCC)CC1`, the GI50 in assay [1], in assay [2], in assay [3], in assay [4], in [6] and in assay [7] was > 100 µM (inactive) in each case. The GI50 in assay [8] was > 100 µM (inactive); in [9], more than 100 µM; in assay [10] it was > 100 µM (inactive); in [11] it was > 100 µM (inactive); in assay [19], > 100 µM (inactive); in assay [13] it was > 100 µM (inactive). Further, the GI50 in [14], in assay [15], in [16] and in assay [17] was > 100 µM (inactive) each time.

Take `COC(=O)C1(C)C=C(Nc2ccccc2)C(=O)N1c1ccccc1` (stereo not drawn): the GI50 in assay [1], in assay [3], in assay [4], in [5], in [6] and in [7] was > 100 µM (inactive) each time. Also, the GI50 in assay [8], in [10], in [11], in [19], in [12] and in assay [13] was > 100 µM (inactive) in each case. Further, the GI50 in [14] is 99.5 µM (inactive); in assay [15], 54.1 µM (inactive); in [16] it was > 100 µM (inactive); in assay [17], > 100 µM (inactive); in assay [18] it was > 100 µM (inactive).

With `O=C(CSC(=S)N1CCOCC1)Nc1nc2c(s1)CCCC2`, the GI50 was > 100 µM (inactive) in assay [1]; > 100 µM (inactive) in assay [2]; 97.7 µM (inactive) in assay [3]; > 100 µM (inactive) in assay [6]; 45.3 µM (inactive) in assay [8]; more than 100 µM in assay [9]. For the same molecule, the GI50 is > 100 µM (inactive) in assay [10]; > 100 µM (inactive) in assay [11]; 24.1 µM (inactive) in assay [19]; > 100 µM (inactive) in assay [12]; > 100 µM (inactive) in assay [13]; 23.9 µM (inactive) in [15]. For the same molecule, the GI50 is 51.9 µM (inactive) in [16] and > 100 µM (inactive) in assay [18].

As to `C=CCC1(C)CCCCC1(O)C[S+]([O-])c1ccccc1` (stereo not drawn), the GI50 in assay [1], in [2], in [4], in assay [5], in [6] and in assay [7] was > 100 µM (inactive) each time. The GI50 in assay [8] is > 100 µM (inactive); in assay [9], more than 100 µM; in assay [10] it was > 100 µM (inactive); in [11], > 100 µM (inactive); in [19], > 100 µM (inactive); in assay [13] it was > 100 µM (inactive). Also, the GI50 in assay [14], in [15], in [16] and in assay [18] was > 100 µM (inactive) each time.

With `CCOc1ccc(N2C(=O)C3c4[nH]c5ccccc5c4C4CCC(C(C)(C)C)CC4C3C2=O)cc1` (stereo not drawn), the GI50 in assay [2] was > 100 µM (inactive); in assay [3], 82.8 µM (inactive); in assay [4], > 100 µM (inactive); in [6], > 100 µM (inactive); in assay [7] it was > 100 µM (inactive); in [8], > 100 µM (inactive). Further, the GI50 was more than 100 µM in assay [9]; 57.5 µM (inactive) in assay [10]; > 100 µM (inactive) in [11]; 28.8 µM (inactive) in assay [19]; 51.3 µM (inactive) in assay [13]; > 100 µM (inactive) in assay [14]. Besides, the GI50 in assay [15] and in assay [17] was > 100 µM (inactive) in each case.

Turning to `N#CCCN(CCC#N)c1ccc(/C=N\c2nc(-c3ccccc3)cs2)cc1`, the GI50 in assay [1], in assay [2], in [3], in [4], in [5] and in assay [6] was > 100 µM (inactive) in each case. Also, the GI50 in [7] is > 100 µM (inactive); in [8], > 100 µM (inactive); in [9], more than 100 µM; in assay [10], > 100 µM (inactive); in assay [11], > 100 µM (inactive); in assay [12] it was > 100 µM (inactive). Besides, the GI50 is > 100 µM (inactive) in assay [13]; > 100 µM (inactive) in [14]; 50.8 µM (inactive) in assay [15]; > 100 µM (inactive) in assay [16]; > 100 µM (inactive) in [17].

Consider `CCCCCCCCCCCCC(SCCNC(=O)CCNC(=O)C(O)C(C)(C)COP(=O)(O)OP(=O)(O)OCC1OC(n2cnc3c(N)ncnc32)C(O)C1OP(=O)(O)O)C(=O)NCC(N)=O` (stereo not drawn), for which the GI50 is > 100 µM (inactive) in [1]; > 100 µM (inactive) in assay [2]; > 100 µM (inactive) in [3]; > 100 µM (inactive) in assay [4]; 66.7 µM (inactive) in assay [7]; > 100 µM (inactive) in assay [8]. For the same molecule, the GI50 was more than 100 µM in [9]; 56.6 µM (inactive) in [10]; > 100 µM (inactive) in [11]; > 100 µM (inactive) in assay [19]; > 100 µM (inactive) in assay [12]; 40.1 µM (inactive) in [13]. The GI50 in assay [14] is > 100 µM (inactive); in assay [15], 38.3 µM (inactive); in [16], > 100 µM (inactive); in assay [18], > 100 µM (inactive).

For `O=C(NC1CCCCC1)NS(=O)(=O)c1ccc2c(c1)CCC2` [GLYHEXAMIDE], the GI50 in assay [1], in assay [3], in [4], in assay [6], in [7] and in assay [8] was > 100 µM (inactive) in each case. Besides, the GI50 is more than 100 µM in assay [9]; > 100 µM (inactive) in assay [10]; > 100 µM (inactive) in [11]; > 100 µM (inactive) in [19]; > 100 µM (inactive) in assay [12]; > 100 µM (inactive) in assay [13]. In addition, the GI50 in assay [14], in assay [15], in assay [16], in assay [17] and in assay [18] was > 100 µM (inactive) in each case.
